Data as given in ChEMBL document CHEMBL1201862, “PubChem BioAssay data set” (2004).
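Five concentrations, 48 hours, 96-well plates. At the GI50, growth is halved.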 Active and inactive are the calls of the source. Cut-off read from the data, not from the text of the source: active = GI50 up to about 1.1 µM and inactive = higher.

Experiments:
Test in all cases: NCI-60 cell line screen, 48 h
786-0 = tested on: 786-0
A498 = tested on: A498
A549 = tested on: A549
ACHN = tested on: ACHN
CAKI-1 = tested on: CAKI-1
CCRF-CEM = tested on: CCRF-CEM
DMS-273 = tested on: DMS-273
EKVX = tested on: EKVX
HCC 2998 = tested on: HCC 2998
HCT-116 = tested on: HCT-116
HCT-15 = tested on: HCT-15
HL-60 = tested on: HL-60
HOP-62 = tested on: HOP-62
HOP-92 = tested on: HOP-92
HT-29 = tested on: HT-29
IGROV-1 = tested on: IGROV-1
K562 = tested on: K562
KM12 = tested on: KM12
LOX IMVI = tested on: LOX IMVI
LXFL 529 = tested on: LXFL 529
M14 = tested on: M14
MOLT-4 = tested on: MOLT-4
NCI-H226 = tested on: NCI-H226
NCI-H23 = tested on: NCI-H23
NCI-H460 = tested on: NCI-H460
NCI-H522 = tested on: NCI-H522
OVCAR-3 = tested on: OVCAR-3
OVCAR-5 = tested on: OVCAR-5
OVCAR-8 = tested on: OVCAR-8
RXF 393 = tested on: RXF 393
SF-268 = tested on: SF-268
SF-295 = tested on: SF-295
SF-539 = tested on: SF-539
SK-MEL-28 = tested on: SK-MEL-28
SK-MEL-2 = tested on: SK-MEL-2
SK-OV-3 = tested on: SK-OV-3
SN12C = tested on: SN12C
SNB-19 = tested on: SNB-19
SNB-75 = tested on: SNB-75
SNB-78 = tested on: SNB-78
SR = tested on: SR
SW-620 = tested on: SW-620
TK-10 = tested on: TK-10
U-251 = tested on: U-251
UACC-257 = tested on: UACC-257
UACC-62 = tested on: UACC-62
UO-31 = tested on: UO-31
XF498 = tested on: XF498
COLO 205 = tested on: COLO 205
DLD-1 = tested on: DLD-1
DMS-114 = tested on: DMS-114
HOP-18 = tested on: HOP-18
KM-20L2 = tested on: KM-20L2
M19-MEL = tested on: M19-MEL
Malme-3M = tested on: Malme-3M
OVCAR-4 = tested on: OVCAR-4
RPMI-8226 = tested on: RPMI-8226
SK-MEL-5 = tested on: SK-MEL-5

## CN(C)c1c([O-])c(=[N+](C)C)c1=O
786-0
  GI50: > 100 µM (inactive)
A498
  GI50: > 100 µM (inactive)
A549
  GI50: > 100 µM (inactive)
ACHN
  GI50: > 100 µM (inactive)
CAKI-1
  GI50: > 100 µM (inactive)
CCRF-CEM
  GI50: > 100 µM (inactive)
DMS-273
  GI50: > 100 µM (inactive)
EKVX
  GI50: > 100 µM (inactive)
HCC 2998
  GI50: > 100 µM (inactive)
HCT-116
  GI50: > 100 µM (inactive)
HCT-15
  GI50: > 100 µM
HL-60
  GI50: > 100 µM (inactive)
HOP-62
  GI50: > 100 µM (inactive)
HOP-92
  GI50: > 100 µM (inactive)
HT-29
  GI50: > 100 µM (inactive)
IGROV-1
  GI50: > 100 µM (inactive)
K562
  GI50: > 100 µM (inactive)
KM12
  GI50: > 100 µM (inactive)
LOX IMVI
  GI50: > 100 µM (inactive)
LXFL 529
  GI50: > 100 µM (inactive)
M14
  GI50: > 100 µM (inactive)
MOLT-4
  GI50: > 100 µM (inactive)
NCI-H226
  GI50: > 100 µM (inactive)
NCI-H23
  GI50: > 100 µM (inactive)
NCI-H460
  GI50: > 100 µM (inactive)
NCI-H522
  GI50: > 100 µM (inactive)
OVCAR-3
  GI50: > 100 µM (inactive)
OVCAR-5
  GI50: > 100 µM (inactive)
OVCAR-8
  GI50: > 100 µM (inactive)
RXF 393
  GI50: > 100 µM (inactive)
SF-268
  GI50: > 100 µM (inactive)
SF-295
  GI50: > 100 µM (inactive)
SF-539
  GI50: > 100 µM (inactive)
SK-MEL-28
  GI50: > 100 µM (inactive)
SK-MEL-2
  GI50: > 100 µM (inactive)
SK-OV-3
  GI50: > 100 µM (inactive)
SN12C
  GI50: > 100 µM (inactive)
SNB-19
  GI50: > 100 µM (inactive)
SNB-75
  GI50: > 100 µM (inactive)
SNB-78
  GI50: > 100 µM (inactive)
SR
  GI50: > 100 µM (inactive)
SW-620
  GI50: > 100 µM (inactive)
TK-10
  GI50: > 100 µM (inactive)
U-251
  GI50: > 100 µM (inactive)
UACC-257
  GI50: > 100 µM (inactive)
UACC-62
  GI50: > 100 µM (inactive)
UO-31
  GI50: > 100 µM (inactive)
XF498
  GI50: > 100 µM (inactive)

## COc1ccc(C=O)cc1O[Si](C)(C)C(C)(C)C
786-0
  GI50: > 100 µM (inactive)
A498
  GI50: > 100 µM (inactive)
A549
  GI50: > 100 µM (inactive)
ACHN
  GI50: > 100 µM (inactive)
CAKI-1
  GI50: > 100 µM (inactive)
CCRF-CEM
  GI50: > 100 µM (inactive)
COLO 205
  GI50: > 100 µM (inactive)
DLD-1
  GI50: > 100 µM (inactive)
DMS-114
  GI50: > 100 µM (inactive)
DMS-273
  GI50: > 100 µM (inactive)
EKVX
  GI50: > 100 µM (inactive)
HCC 2998
  GI50: > 100 µM (inactive)
HCT-116
  GI50: > 100 µM (inactive)
HCT-15
  GI50: > 100 µM
HL-60
  GI50: > 100 µM (inactive)
HOP-18
  GI50: 33.7 µM (inactive)
HOP-62
  GI50: > 100 µM (inactive)
HOP-92
  GI50: 25.7 µM (inactive)
HT-29
  GI50: > 100 µM (inactive)
IGROV-1
  GI50: > 100 µM (inactive)
K562
  GI50: > 100 µM (inactive)
KM-20L2
  GI50: > 100 µM (inactive)
KM12
  GI50: > 100 µM (inactive)
LOX IMVI
  GI50: > 100 µM (inactive)
LXFL 529
  GI50: > 100 µM (inactive)
M14
  GI50: > 100 µM (inactive)
M19-MEL
  GI50: > 100 µM (inactive)
MOLT-4
  GI50: > 100 µM (inactive)
Malme-3M
  GI50: > 100 µM (inactive)
NCI-H23
  GI50: > 100 µM (inactive)
NCI-H460
  GI50: > 100 µM (inactive)
OVCAR-3
  GI50: > 100 µM (inactive)
OVCAR-4
  GI50: > 100 µM (inactive)
OVCAR-5
  GI50: > 100 µM (inactive)
OVCAR-8
  GI50: > 100 µM (inactive)
RPMI-8226
  GI50: > 100 µM (inactive)
RXF 393
  GI50: > 100 µM (inactive)
SF-268
  GI50: > 100 µM (inactive)
SF-295
  GI50: > 100 µM (inactive)
SF-539
  GI50: > 100 µM (inactive)
SK-MEL-2
  GI50: > 100 µM (inactive)
SK-MEL-5
  GI50: > 100 µM (inactive)
SK-OV-3
  GI50: > 100 µM (inactive)
SN12C
  GI50: > 100 µM (inactive)
SNB-19
  GI50: > 100 µM (inactive)
SNB-75
  GI50: 61.5 µM (inactive)
SNB-78
  GI50: > 100 µM (inactive)
SW-620
  GI50: > 100 µM (inactive)
TK-10
  GI50: > 100 µM (inactive)
U-251
  GI50: > 100 µM (inactive)
UACC-257
  GI50: > 100 µM (inactive)
UACC-62
  GI50: > 100 µM (inactive)
UO-31
  GI50: > 100 µM (inactive)

## CN(O)C(=O)SCC(NC(=O)CCC(N)C(=O)O)C(=O)NCC(=O)O (configuration not stated)
CCRF-CEM
  GI50: 1.67 µM (inactive)
DMS-273
  GI50: 1.52 µM (inactive)
HCT-15
  GI50: 24.3 µM
HL-60
  GI50: 318 µM (inactive)
HOP-18
  GI50: 619 µM (inactive)
HOP-62
  GI50: 173 µM (inactive)
HOP-92
  GI50: 294 µM (inactive)
HT-29
  GI50: 1.31 µM (inactive)
K562
  GI50: 305 µM (inactive)
KM12
  GI50: 1050 µM (inactive)
LOX IMVI
  GI50: 1.46 µM (inactive)
MOLT-4
  GI50: 1100 µM (inactive)
NCI-H460
  GI50: 783 µM (inactive)
RPMI-8226
  GI50: 964 µM (inactive)
RXF 393
  GI50: 518 µM (inactive)
SF-268
  GI50: 1630 µM (inactive)
SK-MEL-2
  GI50: 446 µM (inactive)
SK-OV-3
  GI50: 294 µM (inactive)
SNB-75
  GI50: 618 µM (inactive)
SW-620
  GI50: 1760 µM (inactive)
U-251
  GI50: 41.7 µM (inactive)
